# PMC5104426, “Screening a Phage Display Library for Two Novel OmpU-Binding Peptides with Adhesion Antagonistic Activity against Vibrio mimicus” (PLoS ONE, 2016)
# Legend:
# [1] = system: rOmpU fusion protein adhesion to EPC cells; assay: Fluorescence-based adhesion assay: rOmpU protein adhesion to EPC cells; assay type: cell-based, Vibrio mimicus; details: 500 μg/mL peptide mixed with equal volume of 500 μg/mL rOmpU, 1 h 28°C, then 1 h on fixed EPC cells; anti-OmpU/FITC immunofluorescence; triplicate
# Procedure: Synthetic OmpU-binding peptides were measure for their ability to antagonize OmpU protein adhesion to EPC cells by fluorescence-based adhesion assay. Briefly, EPC cells (1 × 10^6 cells/mL) were seeded in 24-well cell plate containing coverslip (Corning, NY, USA) and cultured to 80% confluence. The cells were gently washed 3 times with PBS and fixed with 4% paraformaldehyde at room temperature for 15 min. After 3 washes with PBS, cells were permeabilized with 0.5% Triton X-100 (500 μL/well) for 15 min. The cells were then washed 3 times with PBS and blocked with 2% BSA for 30 min. Subsequently, 500 μg/mL of each OmpU-binding peptide or irrelevant control peptide (used as negative control) solution were respectively mixed with an equal volume of 500 μg/mL rOmpU fusion protein, and the mixture was incubated for 1 h at 28°C and added to each well. The plates were incubated for 1 h at 28°C. After 3 washes, purified rabbit anti-OmpU antibody (prepared in our previous studies) at a dilution of 1:200 in PBS was added to each well and incubated for 1 h at 28°C, followed by 3 washes in PBS. A 1:100 dilution of FITC (fluorescein isothiocyanate)-labeled goat anti-rabbit IgG (Jackson ImmunoResearch Laboratories, Inc., USA) was added to each well and incubated in the dark for 1 h. After 3 washes in PBS, 4,6-Diamidino-2-phenylindole dihydrochloride (DAPI; Ziyi Reagent Co., Shanghai, China) was used to stain the nucleus, and the coverslips were observed under a fluorescence microscope. Each experiment was performed in triplicate, each sample being tested in three wells.
# [2] = system: V. mimicus 04–14 isolate adhesion to EPC cells; assay: Peptide adhesion inhibition test: V. mimicus adhesion to EPC cells; assay type: cell-based, Vibrio mimicus; details: 500 μg/mL peptide mixed with equal volume of V. mimicus 04–14 (2 × 10^7 CFU/mL), 1 h 28°C, then 1 h on EPC cells, crystal violet, 30 cells counted, mean ± SD, triplicate
# Procedure: When EPC cells grown in 24-well plate containing coverslips formed a confluent monolayer, the medium was changed to RPMI-1640 medium without serum and antibiotics for 2 h. Subsequently, 500 μg/mL of each OmpU-binding peptide or unrelated control peptide solution were respectively mixed with an equal volume of V. mimicus isolate 04–14 suspension (2 × 10^7 CFU/mL) and incubated for 1 h at 28°C. The mixture was added to each well, and then the plates were incubated for 1 h at 28°C. After 3 times washes, EPC cells were fixed with cooled methanol for 10 min, stained with crystal violet and examined under a light microscope at a magnification of ×1,000. Thirty cells were randomly selected to count the number of adhering bacterial per slide. Each experiment was performed in triplicate, with each sample being repeated in 3 cell wells.
sequence,measurement,setting,value
TGYICDEMFCKL [P3],green fluorescence on the surface of EPC cells (surface-retained rOmpU),[1],Obvious green fluorescence
same,average number of adhesion around each cell,[2],20.2 ± 0.5
